For test [1], the target named is T1, 5-HT2C receptor (Homo sapiens, UniProt P28335).
T1 sequence (P28335 33-458): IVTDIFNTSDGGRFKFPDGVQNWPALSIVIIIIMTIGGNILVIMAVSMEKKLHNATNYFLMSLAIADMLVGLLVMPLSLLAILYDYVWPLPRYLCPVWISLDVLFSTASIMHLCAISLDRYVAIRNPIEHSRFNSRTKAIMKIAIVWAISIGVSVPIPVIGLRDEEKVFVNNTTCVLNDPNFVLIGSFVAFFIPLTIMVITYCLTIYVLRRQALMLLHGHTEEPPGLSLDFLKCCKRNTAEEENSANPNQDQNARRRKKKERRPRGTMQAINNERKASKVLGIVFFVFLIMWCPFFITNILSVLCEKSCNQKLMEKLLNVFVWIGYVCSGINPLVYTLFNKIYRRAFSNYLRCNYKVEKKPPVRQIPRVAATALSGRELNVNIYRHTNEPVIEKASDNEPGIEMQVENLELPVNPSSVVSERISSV
Kind of test: FLIPR assay for 5-HT2C antagonism. In kind it is cell-based. The following applies: for inhibition at 100 µM: read-out: Inhibition 5-HT2C.
Experimental: Seed cells at the density of 10 K cell/well, 37 °C, 5% CO2 incubate for 16–24 hours, then loading cells with 30 ul of Calcium 5 and 37 °C, 5% CO2 incubate for 1 hour. After transfer compound to compound plate with 30 ul Assay Buffer by Echo, add 15 ul/well of compound, incubate for 10 mins.

For test [2], the system named is L02 cells. The test is described as follows: Cytotoxicity on L02 cells (MTT). In kind it is cell-based, human. The following applies: Homo sapiens, L02, 100μM, after treatment; read-out: IR (inhibitory rate) L02. In short, it runs like this:
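Human normal hepatic L02 cells were plated in 96-well plates at 4 × 10^3 cells per well and grown for 24 h in 1640 or DMEM medium containing 10% fetal bovine serum, penicillin (100 unit/ml) and streptomycin (100 μg/ml), in a humidified 5% CO2 incubator. Cytotoxicity was then assessed using the MTT method.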

The subject of test [3] is rat hippocampus. Kind of test: BDNF, VEGF and IGF-1 level in vivo (ELISA). The following applies: 21-day treatment, i.p. 40 mg/kg, vs vehicle-treated group. The protocol: The detailed procedures were performed according to the reported literatures.
SD rats were killed by decapitation and hippocampi were dissected out and stored at −80 °C until use. Tissue samples were homogenized at 4 °C in Promega lysis buffer for ELISA. Samples were then sonicated and lysates were cleared by centrifugation at 4 °C, 15 000 g. Protein concentrations were determined according to the Bradford assay using bovine serum albumin as standard. Quantifications of VEGF and IGF-1 proteins were measured with Quantikine M mouse VEGF and IGF-1enzyme immunoassay kits and BDNF protein with a mouse ELISA kit.
(ELISA stands for enzyme-linked immunosorbent assay.)

Test [4] has as its system corticosterone injured PC12 cells. The test is described as follows: Hoechst 33258 staining (apoptosis). It counts as cell-based, rat. The following applies: 200 µM corticosterone and 5 µM drug. As to the method: To detect apoptotic cells, drug treated cells were stained with the DNA dye Hoechst 33258. Cells with the indicated treatment were fixed with methanol for 10 min at 4 °C before incubation with Hoechst 33258 for 10 min at room temperature. After washes with PBS, the apoptotic cells were mounted onto slides and observed under the fluorescence microscope BX61 (Olympus, Japan). Images were captured using DP71 CCD digital camera (Olympus).

Test [5] has as its target T2, hERG K^+ channel (Homo sapiens, UniProt Q12809).
T2 construct: expressed in transfected cells
The test is described as follows: hERG K+ channel inhibition (QPatch). The following applies: hERG-expressing CHO cells, Qpatch 16X assay. It counts as cell-based. For orientation: The hERG channel carries a current that helps repolarise heart muscle cells.
Experimental: In brief, A Chinese hamster ovary (CHO) cell line stably expressing hERG potassium channels were cultured into appropriate cell density. Then cells were automatically prepared for application to chips. Whole-cell recordings were performed using automated QPatch (Sophion) and the data were analyzed using Assay Software provided by Graphpad Prism 5.0.

Test [6] relates to corticosterone injured PC12 cells. The test is described as follows: Real-time PCR NGF mRNA level. It counts as cell-based, rat. The following applies: 200 µM corticosterone and 5 µM drug. On the technique in general: Quantitative PCR measures a nucleic acid by following its amplification.

Read-outs that look alike come from different tables or passages of the source. Where only a bound is given, the exact number is not on record here.

T2 sequence (Q12809 whole entry): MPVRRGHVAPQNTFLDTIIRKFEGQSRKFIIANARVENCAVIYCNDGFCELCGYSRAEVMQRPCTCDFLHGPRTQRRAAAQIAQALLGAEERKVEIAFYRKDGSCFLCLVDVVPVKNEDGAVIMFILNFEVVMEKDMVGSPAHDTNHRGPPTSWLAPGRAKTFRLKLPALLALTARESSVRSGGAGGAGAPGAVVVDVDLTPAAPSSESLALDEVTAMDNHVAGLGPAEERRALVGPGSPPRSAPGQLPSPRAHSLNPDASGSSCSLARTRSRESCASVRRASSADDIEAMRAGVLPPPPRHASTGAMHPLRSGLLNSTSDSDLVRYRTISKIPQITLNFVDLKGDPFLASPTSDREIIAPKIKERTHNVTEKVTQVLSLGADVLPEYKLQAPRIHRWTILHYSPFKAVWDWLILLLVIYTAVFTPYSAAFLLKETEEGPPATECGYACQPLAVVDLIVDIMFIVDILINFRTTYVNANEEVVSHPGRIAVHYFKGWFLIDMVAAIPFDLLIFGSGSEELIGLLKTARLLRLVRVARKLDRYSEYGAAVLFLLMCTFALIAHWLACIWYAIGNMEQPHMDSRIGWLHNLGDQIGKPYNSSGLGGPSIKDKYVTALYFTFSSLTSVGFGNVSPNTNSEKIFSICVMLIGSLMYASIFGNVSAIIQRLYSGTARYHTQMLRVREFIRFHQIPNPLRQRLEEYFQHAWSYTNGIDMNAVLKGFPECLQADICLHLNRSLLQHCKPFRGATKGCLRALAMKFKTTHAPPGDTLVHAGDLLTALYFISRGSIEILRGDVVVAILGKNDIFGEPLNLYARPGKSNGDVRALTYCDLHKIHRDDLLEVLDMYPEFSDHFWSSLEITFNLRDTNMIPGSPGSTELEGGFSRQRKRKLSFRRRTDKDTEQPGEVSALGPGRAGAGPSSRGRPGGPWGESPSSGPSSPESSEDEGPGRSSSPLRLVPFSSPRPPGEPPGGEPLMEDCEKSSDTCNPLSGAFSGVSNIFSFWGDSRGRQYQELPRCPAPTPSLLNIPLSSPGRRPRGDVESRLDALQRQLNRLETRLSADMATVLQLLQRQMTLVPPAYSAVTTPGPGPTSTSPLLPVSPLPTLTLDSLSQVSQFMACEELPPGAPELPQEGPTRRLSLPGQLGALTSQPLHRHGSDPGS

For `COc1ccc2cccc(CCNC(C)=O)c2c1` [Agomelatine, reference compound], the inhibition at 100 µM in test [1] (max tested concentration at 100μM) was 66.6%. In test [2], the inhibition at 100 µM came out at 41.8%. In addition, in test [3], the “hippocampal IGF-1 level” value is reported as “neither compound 6a-1 nor Agomelatine exerted any influence” and the “hippocampal VEGF level” value is reported as “neither compound 6a-1 nor Agomelatine exerted any influence”.

Usually IC50 stands for the midpoint of a concentration-inhibition curve. Regarding `COc1ccc2c(c1)C(CCNC(C)=O)=NCC2.O=C(O)C(=O)O` [6a-1, N-(2-(7-Methoxy-3,4-dihydroisoquinolin-1-yl)ethyl) acetamide oxalate], the IC50 in test [1] (FLIPR calcium flux, read-out: IC50 5-HT2C antagonism) is over 100 µM; in test [5], over 40 µM. The inhibition at 100 µM in test [1] is 5.2%; in test [2], under 20%. Further, the “apoptosis of PC12 cells induced by corticosterone” value in test [4] was “effectively reversed apoptosis”. Besides, the “NGF mRNA level” value in test [6] is on record as “does not change”. Moreover, in test [3], the “hippocampal IGF-1 level” value is recorded as “neither compound 6a-1 nor Agomelatine exerted any influence”. Moreover, in test [3], the “hippocampal VEGF level” value is recorded as “neither compound 6a-1 nor Agomelatine exerted any influence”.

Source of the values: article PMC5048153 (Scientific Reports, 2016).
